Experimental data published in ChEMBL document CHEMBL4808187, “Antiarrhythmic Hit to Lead Refinement in a Dish Using Patient-Derived iPSC Cardiomyocytes” (J Med Chem, 2021).
pEC50: −log10 of the molar value. Calls of active or inactive are those of the source. The rule behind the calls is not given here.

Experiments:
[1] = Antiarrhythmic activity in hiPSC-CMs assessed as prolongation of action potential; parameters: species or system Homo sapiens, iPSC-CM; settings: for pEC50: Homo sapiens, iPSC-CM, read-out: EC50; for EC50: ipsc-cm
[2] = Antiarrhythmic activity in hiPSC-CMs assessed as cessation dose of cell beating; settings: human, ipsc-cm
[3] = Antiarrhythmic activity in patient-derived hiPSC-CMs carrying LQT3 mutation assessed as fold shortening of action potential duration relative to control; assay type: functional, Homo sapiens, iPSC-CM; also: test concentration or dose not given here
[4] = Antiarrhythmic activity in patient-derived hiPSC-CMs carrying LQT3 mutation assessed as shortening dose of action potential; assay type: functional, Homo sapiens, iPSC-CM
iPSC-CM = test: (§1) Antiarrhythmic activity in patient-derived hiPSC-CMs carrying LQT3 mutation assessed as cessation dose for cell beating; assay type: functional; settings: Homo sapiens
[5] = Antiarrhythmic activity in patient-derived hiPSC-CMs carrying LQT3 mutation assessed as shortening of action potential duration; assay type: functional, Homo sapiens; settings: ipsc-cm; for pEC50: read-out: EC50
[6] = Antiarrhythmic activity in hiPSC-CMs assessed as dose for induction of early after depolarizations; settings: human, ipsc-cm
[7] = as §1; assay type: functional, Homo sapiens, iPSC-CM
[8] = Antiarrhythmic activity in hiPSC-CMs assessed as fold prolongation of action potential relative to control; settings: human, ipsc-cm

Row | SMILES | pEC50 [1] | Activity [2] | fold change (FC) [3] | Activity [4] | Activity (iPSC-CM) | EC50 [5] | Activity [6] | Activity [7] | pEC50 [5] | Activity [8] | EC50 [1] | fold change (FC) [8]
1 | Cc1cccc(OCC(C)N)c1.Cl (centres undefined) | 4.56 | Not Active | 1.418 | 200 µM | inactive | Not Active | 66 µM |  |  |  |  | 
2 | CCCCNC(C)COc1c(C)cccc1C.Cl (centres undefined) | 5.11 | 133 µM | 1.18 | 2.5 µM |  |  | 66 µM | 66 µM | > 6.10 |  |  | 
3 | Cc1cc(C)cc(OCC(NCCO)c2ccccc2)c1.Cl (centres undefined) |  | 66 µM | 1.5 | 22 µM |  | Not Active | Not Active | 22 µM |  | Not Active |  | 
4 | Cc1cccc(C)c1OCC(N)c1ccc2ccccc2c1.Cl (centres undefined) |  | Not Active | 1.309 | 22 µM |  |  | Not Active | 133 µM | 5.33 |  | Not Active | 
5 | Cc1ccc(OCC(N)C2CC2)c(C)c1.Cl (centres undefined) |  | 200 µM | 1.119 | 66 µM |  |  | 66 µM | 200 µM | 5.87 |  |  | 2.12
6 | CNC(COc1cccc(C)c1C)c1ccccc1.Cl (centres undefined) |  | 133 µM | 1.29 | 22 µM |  | Not Active | Not Active | 66 µM |  | Not Active |  | 
7 | Cc1ccccc1OCC(C)N.Cl (centres undefined) | 4.08 | Not Active | 1.284 | 22 µM | inactive |  | 200 µM |  | > 6.10 |  |  | 
8 | Cl.NC(COc1ccccc1OC(F)(F)F)c1ccccc1 (centres undefined) |  | 66 µM | 1.513 | 22 µM |  |  | Not Active | 66 µM | 5.59 |  | Not Active | 
9 | CCc1ccccc1OCC(C)N.Cl (centres undefined) | 4.63 | Not Active | 1.118 | 22 µM | inactive |  | Not Active |  | 5.22 |  |  | 
10 | COc1ccccc1OCC(N)c1ccccc1.Cl (centres undefined) | 4.49 | 22 µM | 1.482 | 0.8 µM |  |  | 7.4 µM | 133 µM | > 6.10 |  |  | 
11 | CCCc1ccccc1OCC(C)N.Cl (centres undefined) | 5.11 | 200 µM | 1.192 | 7.4 µM |  |  | Not Active | 133 µM | 6.05 |  |  | 
12 | Cc1cccc(C)c1OCC(N)C1CCCCC1.Cl (centres undefined) |  | 66 µM | 1.136 | 0.8 µM |  |  | Not Active | 66 µM | > 6.10 |  | Not Active | 
13 | COCCNC(C)COc1c(C)cccc1C.Cl (centres undefined) | 4.49 | Not Active |  | 7.4 µM | inactive |  | 66 µM |  | 5.64 |  |  | 
14 | Cc1cccc(OCC(N)c2ccccc2)c1.Cl (centres undefined) |  | 133 µM | 1.41 | 22 µM |  |  | Not Active | 66 µM | > 6.10 |  | Not Active | 
15 | Cc1ccc(OCC(N)C2CC2)cc1C.Cl (centres undefined) |  | 66 µM | 1.18 | 22 µM |  | Not Active | Not Active | 66 µM |  | Not Active |  | 
16 | Cc1cccc(C)c1OCC(N)c1ccccc1.Cl (centres undefined) |  |  |  |  |  |  |  |  |  |  |  | 4
17 | Cl.NC(COc1cccc(C(F)(F)F)c1)c1ccccc1 (centres undefined) |  | 66 µM | 1.539 | 22 µM |  |  | Not Active | 66 µM | 5.39 |  | Not Active | 
18 | Cc1cccc(C)c1OCC(C)NCc1ccccc1.Cl (centres undefined) | 5.24 | 200 µM | 1.264 | 22 µM |  | Not Active | Not Active | 133 µM |  |  |  | 
